The source of these data is ChEMBL document CHEMBL1759923, “Preparation, in vitro screening and molecular modelling of symmetrical bis-quinolinium cholinesterase inhibitors--implications for early myasthenia gravis treatment” (Bioorg Med Chem Lett, 2011).

One test has as its target Cholinesterase (Homo sapiens, UniProt P06276). As to the kind of experiment: Inhibition of human plasmatic BChE by modified Ellman's method. The arrangement: species or system Plasma.
The target in test [1] is T1, Acetylcholinesterase (Homo sapiens, UniProt P22303). Nature of the test: Inhibition of human erythrocyte recombinant AChE by modified Ellman's method. For orientation: Ellman's reagent forms a yellow product with free thiols.
Test [2] concerns the target T1, Acetylcholinesterase. As to the kind of experiment: Inhibition of human erythrocytes recombinant AChE assessed as dissociation constant for enzyme-inhibitor-substrate complex.
For test [3], the target named is T1, Acetylcholinesterase. Nature of the test: Inhibition of human erythrocytes recombinant AChE assessed as dissociation constant for enzyme-inhibitor complex.
Test [4] deals with T1, Acetylcholinesterase. As to the kind of experiment: Inhibition of human erythrocyte recombinant AChE at 0.1 mM to […] by modified Ellman's method.

Structures are written as SMILES. The source made the active and inactive calls. The calls are words filed in the database; no cut-off is given here.

Cholinesterase, sequence (P06276 whole entry): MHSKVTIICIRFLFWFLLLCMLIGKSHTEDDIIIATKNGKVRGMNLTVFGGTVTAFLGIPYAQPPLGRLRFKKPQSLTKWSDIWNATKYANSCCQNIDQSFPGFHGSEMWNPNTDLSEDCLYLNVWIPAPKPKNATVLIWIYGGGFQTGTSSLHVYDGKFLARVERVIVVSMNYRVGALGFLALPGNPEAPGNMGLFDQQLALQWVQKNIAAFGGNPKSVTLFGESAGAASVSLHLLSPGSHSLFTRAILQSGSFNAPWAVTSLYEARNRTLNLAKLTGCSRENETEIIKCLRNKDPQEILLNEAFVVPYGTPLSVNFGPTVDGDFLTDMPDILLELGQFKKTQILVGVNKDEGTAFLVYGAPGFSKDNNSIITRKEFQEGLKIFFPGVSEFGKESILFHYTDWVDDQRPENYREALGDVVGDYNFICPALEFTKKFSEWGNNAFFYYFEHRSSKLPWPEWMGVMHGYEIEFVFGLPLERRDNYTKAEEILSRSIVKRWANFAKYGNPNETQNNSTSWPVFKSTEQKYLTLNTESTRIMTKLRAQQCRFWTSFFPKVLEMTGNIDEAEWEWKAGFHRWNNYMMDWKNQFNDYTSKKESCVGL
T1 sequence (P22303 whole entry): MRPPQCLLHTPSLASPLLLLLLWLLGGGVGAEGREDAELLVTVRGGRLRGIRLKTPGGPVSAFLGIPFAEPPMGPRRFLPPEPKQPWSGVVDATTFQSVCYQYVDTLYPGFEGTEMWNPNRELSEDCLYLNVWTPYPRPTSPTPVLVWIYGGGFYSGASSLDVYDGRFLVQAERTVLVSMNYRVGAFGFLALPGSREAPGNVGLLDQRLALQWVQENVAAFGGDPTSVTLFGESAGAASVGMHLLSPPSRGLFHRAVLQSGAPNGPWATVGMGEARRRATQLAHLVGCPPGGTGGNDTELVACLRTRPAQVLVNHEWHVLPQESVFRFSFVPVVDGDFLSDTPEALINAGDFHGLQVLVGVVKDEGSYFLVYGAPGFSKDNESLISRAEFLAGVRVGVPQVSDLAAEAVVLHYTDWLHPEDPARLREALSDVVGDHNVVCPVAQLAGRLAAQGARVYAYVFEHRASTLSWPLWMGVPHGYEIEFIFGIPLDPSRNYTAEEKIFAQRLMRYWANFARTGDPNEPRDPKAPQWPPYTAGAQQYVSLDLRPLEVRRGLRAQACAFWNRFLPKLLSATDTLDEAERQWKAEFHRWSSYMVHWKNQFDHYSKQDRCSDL

As to `c1cc(C[n+]2cccc3ccccc32)cc(C[n+]2cccc3ccccc32)c1`, the IC50 amounted to 20 µM at Cholinesterase and 40 µM at Acetylcholinesterase [1].
On to `c1ccc2c(c1)ccc[n+]2CCC[n+]1cccc2ccccc21`, for which the IC50 on Cholinesterase worked out at 13 µM; at Acetylcholinesterase [1], 9 µM.
In the same order, the values of `C(=C\C[n+]1cccc2ccccc21)/C[n+]1cccc2ccccc21` are 308 µM and 6 µM.
For the molecule `c1ccc2c(c1)ccc[n+]2CCCC[n+]1cccc2ccccc21`, the 50% inhibitory concentration (IC50) amounted to 32 µM on Cholinesterase and 38 µM at Acetylcholinesterase [1].
The like results for `c1ccc2c(c1)ccc[n+]2CCOCC[n+]1cccc2ccccc21` were, in that order, 48 µM and 35 µM.
In the same order, the values of `c1ccc2c(c1)ccc[n+]2CCCCCCCCCCC[n+]1cccc2ccccc21` are 0.5 µM and 0.01 µM.
In the same order, the values of `c1ccc2c(c1)ccc[n+]2CCCCCCCC[n+]1cccc2ccccc21` are 0.7 µM and 0.08 µM.
Consider `C(=C/C[n+]1cccc2ccccc21)/C[n+]1cccc2ccccc21`, for which the concentration for half-maximal inhibition (IC50) was found to be 0.8 µM against Cholinesterase and 2 µM on Acetylcholinesterase [1].
Consider `c1ccc2c(c1)ccc[n+]2Cc1ccc2ccc(C[n+]3cccc4ccccc43)cc2c1`, for which the Ki on Acetylcholinesterase [2] stood at 8.2 µM; at Acetylcholinesterase [3] it was 2.3 µM. Also, the IC50 is 0.2 µM at Cholinesterase and 0.8 µM at Acetylcholinesterase [1].
As to `C[N+](C)(CCNC(=O)C(=O)NCC[N+](C)(C)Cc1ccccc1Cl)Cc1ccccc1Cl` [AMBENONIUM DICHLORIDE], on Cholinesterase, half-maximal inhibition (IC50) was put at 7 µM.
In the case of `c1ccc2c(c1)ccc[n+]2CCCCCCC[n+]1cccc2ccccc21`, the results for the IC50 against Cholinesterase and at Acetylcholinesterase [1] were 0.4 µM and 0.09 µM, respectively.
For the molecule `c1ccc2c(c1)ccc[n+]2Cc1ccc(C[n+]2cccc3ccccc32)cc1`, the inhibition entry at Acetylcholinesterase [4] was “inactive”.
On to `c1ccc2c(c1)ccc[n+]2CCCCCC[n+]1cccc2ccccc21`, for which the IC50 came to 5 µM against Cholinesterase and 25 µM on Acetylcholinesterase [1].
With `c1ccc2c(c1)ccc[n+]2CCCCCCCCCCCC[n+]1cccc2ccccc21`, the concentration for half-maximal inhibition (IC50) against Cholinesterase came to 0.4 µM; on Acetylcholinesterase [1], 0.02 µM.
In the same order, the values of `c1ccc(C[n+]2cccc3ccccc32)c(C[n+]2cccc3ccccc32)c1` are 6 µM and 35 µM.
In the same order, the values of `c1ccc2c(c1)ccc[n+]2COC[n+]1cccc2ccccc21` are 871 µM and 418 µM.
With `c1ccc2c(c1)ccc[n+]2CCCCCCCCC[n+]1cccc2ccccc21`, the half-inhibitory concentration (IC50) against Cholinesterase was 0.6 µM; on Acetylcholinesterase [1], 0.08 µM.
The like results for `c1ccc2c(c1)ccc[n+]2CCCCC[n+]1cccc2ccccc21` were, in that order, 34 µM and 4 µM.

In general, IC50 refers to the point on the concentration scale where inhibition reaches its midpoint. As usually defined, the Ki is a dissociation constant, usually derived from enzyme kinetics or from competition with a known ligand.
